One data set deals with β-catenin/TCF complex. Kind of data set: cells. The format is cell-based.
Data set [1] concerns IEC18 Rat Epithelial Cells (IEC18-S33Y). The conditions noted are these: 17-20 h with compound, WST-1. Here is the method: Using the above assay system, IC50 and LD50 values were determined for the pyrimidotriazinedione compounds. IEC18-S33Y cells carrying a β-catenin firefly luciferase cassette and a constitutively active renilla luciferase cassette were seeded at 40,000 cells/well in 96-well tissue culture plates (BD Biosciences, Bedford, Mass.) in a total volume of 80 μL of tissue culture medium (Dulbecco's modified Eagle medium without Phenol-Red (Invitrogen, Carlsbad, Calif.) supplemented with 10% (v/v) fetal bovine serum (Hyclone, Logan, Utah)) and incubated for 24 h. […] Working solutions of the compounds were obtained by further diluting the stock solutions in tissue culture medium by at least 50-fold. Serial twofold dilutions of the working solutions of the compounds were added to the cells in a volume of 40 μL and the cells were incubated in the presence of the compounds for 17-20 h.
LD50 values of the pyrimidotriazinediones then were determined using a WST-1 colorimetric cell proliferation assay. A mixture containing 20 μL of medium and 10 μL of WST-1 reagent (available from Roche, Indianapolis, Ind.) was added to the cells and the cells were incubated for 1 h at 37° C., after which time absorption at 550 nm was measured using a microplate reader.

Setting [2] is: Rattus norvegicus, IEC18-S33Y cells, 17-20 h with compound, β-catenin-dependent firefly luciferase with Renilla control, read-out: IC50.

Molecules are shown by their SMILES. Read-outs that look alike come from different tables or passages of the source.

A word on the melting point: it is the temperature, or range, at which the solid turns liquid. With `Cn1nc(-c2ccc([N+](=O)[O-])cc2)nc2c(=O)n(C)c(=O)nc1-2`, the melting point lay within 220 to 223 °C. On the same count and under the same terms, the same measure for `Cn1nc(-c2cccc([N+](=O)[O-])c2)nc2c(=O)n(C)c(=O)nc1-2`: 223 to 224 °C; for `Cn1c(=O)nc2[nH]nc(-c3ccccc3F)nc-2c1=O`: 248 to 250 °C; for `CCCn1c(=O)n(C)c(=O)c2nc(-c3ccc(Cl)cc3)nnc21`: 202 to 205 °C.

`Cc1ccc(Cn2c(=O)n(C)c(=O)c3nc(-c4ccccc4F)nnc32)cc1`: the melting point is 320 °C (dec.). Still for that read-out and setting: to `Cn1c(=O)c2nc(-c3ccccc3)nnc2n(Cc2ccc(F)cc2)c1=O` belongs 253 to 254 °C; to `Cn1c(=O)c2nc(-c3ccc(Cl)cc3)nnc2n(Cc2ccccc2F)c1=O`, 251 to 254 °C.

With `Cn1c(=O)c2nc(-c3ccccc3)nnc2n(Cc2ccc(C(F)(F)F)cc2)c1=O`, the melting point is 225 to 227 °C (dec.). In the case of `Cn1c(=O)c2nc(-c3ccccc3)nnc2n(Cc2ccc([N+](=O)[O-])cc2)c1=O`, the melting point was 274 to 280 °C (dec.). As to `Cn1c(=O)nc2n(CCO)nc(-c3ccc(Cl)c(Cl)c3)nc-2c1=O`, the melting point is 208 to 211 °C (dec.). On the same count and under the same terms, to `COc1ccc(-c2nc3c(=O)n(C)c(=O)nc-3n(CCO)n2)cc1OC` belongs 215 to 218 °C (dec.). The term IC50 denotes the concentration needed to halve the response being measured. For the compound `Cn1nc(-c2ccccc2)[n+]([O-])c2c(=O)n(C)c(=O)nc1-2`, in the data set with β-catenin/TCF complex (setting [2]), the IC50 is 490 ± 220 nM. Besides, the LD50 in data set [1] was determined as 1.71 ± 46.77 µM.

For `Cn1nc(-c2ccc(Cl)cc2)[n+]([O-])c2c(=O)n(C)c(=O)nc1-2`, in the data set with β-catenin/TCF complex (setting [2]), the IC50 amounted to 700 ± 150 nM. In data set [1], the LD50 was 2.01 ± 2.58 µM. The like results for `Cc1nc2c(=O)n(C)c(=O)nc-2n(C)n1` [Compound 5b, 1,3,6-Trimethylpyrimido[5,4-e][1,2,4]triazine-5,7(1H,6H)-dione] were, in that order, 1000 ± 190 nM and 2.02 ± 0.75 µM. The like results for `CCc1nc2c(=O)n(C)c(=O)nc-2n(C)n1` [Compound 5c, 3-Ethyl-1,6-dimethylpyrimido[5,4-e][1,2,4]triazine-5,7(1H,6H)-dione] were, in that order, 1420 ± 250 nM and 2.94 ± 10 µM. Take `Cn1nc(-c2ccccc2)nc2c(=O)n(C)c(=O)nc1-2` [Compound 5d, 1,6-Dimethyl-3-phenylpyrimido[5,4-e][1,2,4]triazine-5,7(1H,6H)-dione]: the IC50 with β-catenin/TCF complex (setting [2]) was determined as 530 ± 100 nM. Further, the LD50 in data set [1] turned out to be 1.39 ± 0.44 µM. The like results for `Cc1ccc(-c2nc3c(=O)n(C)c(=O)nc-3n(C)n2)cc1` [Compound 5e, 1,6-Dimethyl-3-(4-methylphenyl)pyrimido[5,4-e][1,2,4]triazine-5,7(1H,6H)-dione] were, in that order, 680 ± 90 nM and 0.84 ± 0.25 µM. The like results for `Cn1nc(-c2ccc(F)cc2)nc2c(=O)n(C)c(=O)nc1-2` [Compound 5f, 3-(4-Fluorophenyl)-1,6-dimethylpyrimido[5,4-e][1,2,4]triazine-5,7(1H,6H)-dione] were, in that order, 300 ± 70 nM and 1.10 ± 0.01 µM. For `Cn1nc(-c2ccccc2F)nc2c(=O)n(C)c(=O)nc1-2` [Compound 5g, 3-(2-Fluorophenyl)-1,6-dimethylpyrimido[5,4-e][1,2,4]triazine-5,7(1H,6H)-dione], the IC50 with β-catenin/TCF complex (setting [2]) is 190 ± 14 nM. The LD50 in data set [1] was 0.71 ± 3.31 µM. The like results for `Cn1nc(-c2ccc(Cl)cc2)nc2c(=O)n(C)c(=O)nc1-2` [Compound 5h, 3-(4-Chlorophenyl)-1,6-dimethylpyrimido[5,4-e][1,2,4]triazine-5,7(1H,6H)-dione] were, in that order, 1050 ± 290 nM and 2.84 ± 0.80 µM. For `Cn1nc(-c2cccc(Cl)c2)nc2c(=O)n(C)c(=O)nc1-2` [Compound 5i, 3-(3-Chlorophenyl)-1,6-dimethylpyrimido[5,4-e][1,2,4]triazine-5,7(1H,6H)-dione], the IC50 in the data set on β-catenin/TCF complex (setting [2]) worked out at 5030 ± 1180 nM. The LD50 in data set [1] was determined as 23.88 ± 5.17 µM. Turning to `Cn1nc(-c2ccc(Cl)c(Cl)c2)nc2c(=O)n(C)c(=O)nc1-2` [Compound 5j, 3-(3,4-Dichlorophenyl)-1,6-dimethylpyrimido[5,4-e][1,2,4]triazine-5,7(1H,6H)-dione], in the data set with β-catenin/TCF complex (Rattus norvegicus), the IC50 is 9320 ± 7440 nM. Moreover, the LD50 in data set [1] was 30.1 ± 17.54 µM. With `CCN(CC)CCOc1ccc(-c2nc3c(=O)n(C)c(=O)nc-3n(C)n2)cc1` [Compound 5l, 3-(4-(2-(Diethylamino)ethoxy)phenyl)-1,6-dimethylpyrimido[5,4-e][1,2,4]triazine-5,7(1H,6H)-dione], in the data set with β-catenin/TCF complex (setting [2]), the IC50 is 16 ± 18 nM. Moreover, the LD50 in data set [1] is 0.136 ± 1 µM.

As for `Cc1ccc(-c2n[nH]c3nc(=O)n(C)c(=O)c-3n2)cc1` [Compound 6a, 6-Methyl-3-p-tolylpyrimido[5,4-e][1,2,4]triazine-5,7(1H,6H)-dione], in the data set with β-catenin/TCF complex (setting [2]), the IC50 was found to be 21100 ± 14100 nM. For the same compound, the LD50 in data set [1] was over 50 µM.

On to `Cn1c(=O)c2nc(-c3ccccc3F)nnc2n(Cc2ccccc2)c1=O` [Compound 7d, 8-Benzyl-3-(2-fluorophenyl)-6-methylpyrimido[5,4-e][1,2,4]triazine-5,7(6H,8H)-dione], for which the half-inhibitory concentration (IC50) in the data set on β-catenin/TCF complex (setting [2]) stood at 3600 ± 2250 nM. Same read-out and setting: to `Cn1c(=O)c2nc(-c3ccc(F)cc3)nnc2n(Cc2ccc(C(C)(C)C)cc2)c1=O` [Compound 7h, 8-(4-tert-Butylbenzyl)-3-(4-fluorophenyl)-6-methylpyrimido[5,4-e][1,2,4]triazine-5,7(6H,8H)-dione] belongs 330 ± 10 nM. For the compound `COc1ccc(-c2nnc3c(n2)c(=O)n(C)c(=O)n3Cc2ccc(F)cc2)cc1` [Compound 7j, 8-(4-Fluorobenzyl)-3-(4-methoxyphenyl)-6-methylpyrimido[5,4-e][1,2,4]triazine-5,7(6H,8H)-dione], the melting point was 230 to 234 °C (dec.). For the compound `Cn1c(=O)nc2n(CCO)nc(-c3ccccc3)nc-2c1=O` [Compound 8a, 1-(2-Hydroxyethyl)-6-methyl-3-phenylpyrimido[5,4-e][1,2,4]triazine-5,7(1H,6H)-dione], in the data set with β-catenin/TCF complex (setting [2]), the IC50 was 970 ± 220 nM. For the same compound, in data set [1], the LD50 was 2.09 ± 0.78 µM.

On to `Cc1ccc(-c2nc3c(=O)n(C)c(=O)nc-3n(CCO)n2)cc1` [Compound 8b, 1-(2-Hydroxyethyl)-6-methyl-3-(4-methylphenyl)pyrimido[5,4-e][1,2,4]triazine-5,7(1H,6H)-dione], for which the IC50 in the data set with β-catenin/TCF complex (setting [2]) is 320 ± 230 nM. In addition, the LD50 in data set [1] stood at 2.55 ± 21.76 µM. As to `Cn1c(=O)nc2n(CCO)nc(-c3ccc(Cl)cc3)nc-2c1=O` [Compound 8c, 3-(4-Chlorophenyl)-1-(2-hydroxyethyl)-6-methylpyrimido[5,4-e][1,2,4]triazine-5,7(1H,6H)-dione], the IC50 with β-catenin/TCF complex (setting [2]) turned out to be 4560 ± 8240 nM. For the same compound, in data set [1], the LD50 stood at 6.36 ± 21.76 µM. Take `COc1ccc(-c2nc3c(=O)n(C)c(=O)nc-3n(CCO)n2)cc1` [Compound 8e, 1-(2-Hydroxyethyl)-3-(4-methoxyphenyl)-6-methylpyrimido[5,4-e][1,2,4]triazine-5,7(1H,6H)-5,7-dione]: the IC50 with β-catenin/TCF complex (IEC18-S33Y cells, 17-20 h with compound, β-catenin-dependent firefly luciferase with Renilla control, read-out: IC50) turned out to be 6070 ± 4910 nM. Besides, in data set [1], the LD50 was determined as 8.39 ± 10.29 µM. As for `Cn1c(=O)nc2n(CCO)nc(-c3ccc(OCCN4CCCC4)cc3)nc-2c1=O` [Compound 8f, 1-(2-Hydroxyethyl)-6-methyl-3-(4-(2-(pyrrolidin-1-yl)ethoxy)phenyl)pyrimido[5,4-e][1,2,4]triazine-5,7(1H,6H)-dione], the 50% inhibitory concentration (IC50) in the data set on β-catenin/TCF complex (setting [2]) was 1340 ± 150 nM. The LD50 in data set [1] was 1.55 ± 0.22 µM. `CN(C)c1ccc(-c2nc3c(=O)n(C)c(=O)nc-3n(CCO)n2)cc1` [Compound 8i, 3-(4-(Dimethylamino)phenyl)-1-(2-hydroxyethyl)-6-methylpyrimido[5,4-e][1,2,4]triazine-5,7(1H,6H)-dione]: the melting point is 170 to 180 °C (dec.). For the compound `Cn1c(=O)nc2n(CCO)nc(-c3ccccn3)nc-2c1=O` [Compound 8j, 1-(2-Hydroxyethyl)-6-methyl-3-(pyridin-2-yl)pyrimido[5,4-e]-[1,2,4]triazine-5,7(1H,6H)-dione], in the data set with β-catenin/TCF complex (setting [2]), the IC50 was determined as 3810 ± 590 nM. Also, the LD50 in data set [1] amounted to 9.55 ± 0.001 µM.

Consider `CCN(CC)CCOc1ccc(-c2nnc3c(n2)c(=O)n(C)c(=O)n3Cc2cccc(F)c2)cc1` [Compound 10c, 3-(4-(2-(Diethylamino)ethoxy)phenyl)-8-(3-fluorobenzyl)-6-methylpyrimido[5,4-e][1,2,4]triazine-5,7(6H,8H)-dione], for which, in the data set on β-catenin/TCF complex (setting [2]), the IC50 amounted to 23400 ± 2830 nM. The LD50 in data set [1] worked out at 21.49 ± 10.42 µM. With `Cn1nc(-c2ccccc2F)nc2c(=O)[nH]c(=O)nc1-2` [Compound 17a, 3-(2-Fluorophenyl)-1-methylpyrimido[5,4-e][1,2,4]triazine-5,7(1H,6H)-dione], the melting point is 240 to 247 °C (dec.). In the case of `Cn1nc(-c2ccccc2F)nc2c(=O)n(Cc3ccc(F)c(F)c3)c(=O)nc1-2` [Compound 17e, 6-(3,4-Difluorobenzyl)-3-(2-fluorophenyl)-1-methylpyrimido[5,4-e][1,2,4]triazine-5,7(1H,6H)-dione], the “inhibitory activity of β-catenin-mediated transcription (in words)” value with β-catenin/TCF complex (IEC18-S33Y cells) is reported as “antagonized β-catenin-mediated transcription”. For the same compound, in the data set on β-catenin/TCF complex (setting [2]), the IC50 was 110 ± 60 nM. In addition, in data set [1], the LD50 stood at 0.48 ± 0.10 µM.

The record behind these values is patent US20110166144A1, “Pyrimidotriazinediones and Pyrimidopyrimidinediones and Methods of Using the Same” (THE REGENTS OF THE UNIVERSITY OF MICHIGAN, priority 2008, published 2011).
